The values that follow come from ChEMBL document CHEMBL1201862, “PubChem BioAssay data set” (2004).

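A five-concentration, 48-hour dose response in 96-well plates underlies each endpoint, interpolated linearly between surrounding concentrations. GI50: concentration for 50% inhibition of growth.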 Activity calls are given as the source filed them. Cut-off read from the data, not from the text of the source: active = GI50 up to about 1.1 µM and inactive = higher.

Assay in all cases: DTP human tumour cell line panel, 48 h
The test system of assay [1] is 786-0.
Assay [2] concerns A498.
For assay [3], the system named is A549.
For assay [4], the system named is CCRF-CEM.
In assay [5] the test system is HOP-62.
Assay [6] relates to HT-29.
The subject of assay [7] is M14.
Assay [8] concerns MDA-MB-435.
Assay [9] concerns NCI-H23.
Assay [10] relates to OVCAR-5.
The subject of assay [11] is RPMI-8226.
The test system of assay [12] is RXF 393.
Assay [13] deals with SF-268.
The subject of assay [14] is SF-295.
For assay [15], the system named is SK-MEL-28.
For assay [16], the system named is SK-MEL-5.
Assay [17] has as its system SW-620.
Assay [18] concerns T47D.
In assay [19] the test system is U-251.
In assay [20] the test system is UACC-62.

The term GI50 denotes the concentration giving 50% growth inhibition.

Take `CC(NNC(=O)c1cc[n+]([BH2-]C#N)cc1)c1ccc(Cl)c(Cl)c1` (stereo not given): the GI50 is 47.5 µM (inactive) in assay [1]; 33.7 µM (inactive) in assay [2]; 32.5 µM (inactive) in assay [3]; 37.1 µM (inactive) in assay [4]; 45 µM (inactive) in [5]; 17.5 µM (inactive) in assay [6]. For the same compound, the GI50 is 38.1 µM (inactive) in assay [7]; 34.8 µM (inactive) in assay [8]; 20.7 µM (inactive) in [9]; 41.3 µM (inactive) in assay [10]; 33.5 µM (inactive) in [11]; 38.5 µM (inactive) in [12]. Besides, the GI50 in assay [13] was 39.6 µM (inactive); in assay [14], 29.6 µM (inactive); in [15], 40.8 µM (inactive); in assay [16], 19.7 µM (inactive); in assay [17], 45.1 µM (inactive); in [18], 23.3 µM (inactive). In addition, the GI50 was 40.2 µM (inactive) in assay [19] and 29.7 µM (inactive) in assay [20].
Take `O=C1O[C@H]2[C@H](O)[C@@H](OC(=O)c3cc(O)c(O)c4c3[C@@H]3C1=CC(=O)C(O)(O)C3(O)O4)[C@H](OC(=O)c1cc(O)c(O)c(O)c1)O[C@@H]2CO` (stereo not given in full) [FUROSIN]: the GI50 in [1] is > 100 µM (inactive); in [2] it was > 100 µM (inactive); in assay [3] it was 79.1 µM (inactive); in assay [4] it was 17.9 µM (inactive); in assay [5], > 100 µM (inactive); in assay [6], 49.1 µM (inactive). Also, the GI50 in [7] was 62.2 µM (inactive); in assay [8] it was 39.5 µM (inactive); in assay [9], > 100 µM (inactive); in [10], > 100 µM (inactive); in assay [11], > 100 µM (inactive); in assay [12], > 100 µM (inactive). The GI50 was 76.4 µM (inactive) in [13]; 71.6 µM (inactive) in [14]; > 100 µM (inactive) in assay [15]; 42.5 µM (inactive) in assay [16]; > 100 µM (inactive) in [17]; > 100 µM (inactive) in assay [18]. The GI50 in assay [19] was > 100 µM (inactive); in assay [20] it was 75.7 µM (inactive).
With `COC1=CC(=O)C(C2CC(=O)c3c(O)cc(O)cc3O2)=CC1=O` (stereo not given), the GI50 was 13.1 µM (inactive) in [1]; 29.9 µM (inactive) in assay [2]; 39.9 µM (inactive) in assay [3]; 0.658 µM (active) in [4]; 17.1 µM (inactive) in assay [5]; > 45.1 µM (inactive) in assay [6]. Besides, the GI50 in assay [7] was 17.7 µM (inactive); in assay [8], 16.2 µM (inactive); in assay [9], 20.5 µM (inactive); in assay [10] it was 19.6 µM (inactive); in [11], 10.9 µM (inactive); in assay [12] it was 19.1 µM (inactive). For the same compound, the GI50 was 20.7 µM (inactive) in assay [13]; 19.2 µM (inactive) in [14]; 16.9 µM (inactive) in [15]; 16.8 µM (inactive) in assay [16]; 20.2 µM (inactive) in [17]; 14.4 µM (inactive) in assay [18]. Also, the GI50 is 18.5 µM (inactive) in assay [19] and 16.4 µM (inactive) in assay [20].
Turning to `CC[C@@]1(O)C(=O)OCc2c1cc1n(c2=O)Cc2c-1nc1ccc(O)cc1c2CC[Si](C)(C)C`, the GI50 in [1] is < 0.001 µM (active); in [2], 0.00383 µM (active); in assay [3] it was 0.00366 µM (active); in assay [4] it was < 0.001 µM (active); in [5], < 0.001 µM (active); in assay [6], 0.012 µM (active). The GI50 in assay [7] is < 0.001 µM (active); in assay [8], 0.00766 µM (active); in assay [9] it was < 0.001 µM (active); in [10] it was 0.0272 µM (active); in assay [11], 0.0131 µM (active); in [12], 0.00279 µM (active). Also, the GI50 in assay [13] was < 0.001 µM (active); in assay [14], 0.00131 µM (active); in [15] it was 0.0402 µM (active); in assay [16] it was 0.00116 µM (active); in assay [17], 0.00438 µM (active); in assay [18], < 0.001 µM (active). Besides, the GI50 in assay [19] and in [20] was < 0.001 µM (active) each time.
For the compound `O=C(NCCCCCCCCNC(=O)c1cc(-c2ccccc2)nc2ccccc12)c1cc(-c2ccccc2)nc2ccccc12`, the GI50 was 41.7 µM (inactive) in assay [1]; > 100 µM (inactive) in assay [2]; > 100 µM (inactive) in [3]; > 100 µM (inactive) in assay [4]; 38.8 µM (inactive) in assay [5]; > 100 µM (inactive) in assay [6]. Besides, the GI50 in assay [7] was > 100 µM (inactive); in assay [8] it was > 100 µM (inactive); in [9], > 100 µM (inactive); in assay [10], > 100 µM (inactive); in assay [11] it was > 100 µM (inactive); in assay [12], 2.48 µM (inactive). For the same compound, the GI50 in assay [13] was 68.9 µM (inactive); in assay [14], > 100 µM (inactive); in [15] it was > 100 µM (inactive); in assay [16], > 100 µM (inactive); in assay [17], > 100 µM (inactive); in assay [18], > 100 µM (inactive). Moreover, the GI50 in assay [19] is 35.3 µM (inactive); in [20], > 100 µM (inactive).
With `Cc1cc2c(c(/C=N/c3ccccc3O)c1)OC1(C=C2)Oc2ccccc2C(=O)N1C` (stereo not given), the GI50 in assay [1] was 14.4 µM (inactive); in assay [2], 18.6 µM (inactive); in [3] it was 21.7 µM (inactive); in assay [4] it was 17.1 µM (inactive); in assay [5] it was 18.8 µM (inactive); in assay [6], 16.6 µM (inactive). The GI50 in [7] was 15.5 µM (inactive); in assay [8] it was 22.6 µM (inactive); in [9], 17.8 µM (inactive); in assay [10], 13.2 µM (inactive); in [11] it was 21.2 µM (inactive); in assay [12], 13 µM (inactive). Besides, the GI50 is 14.4 µM (inactive) in [13]; 24.7 µM (inactive) in assay [14]; 18.3 µM (inactive) in [15]; 15.2 µM (inactive) in [16]; 22.3 µM (inactive) in assay [17]; 1.57 µM (inactive) in assay [18]. Moreover, the GI50 in [19] was 18.2 µM (inactive); in assay [20], 17.8 µM (inactive).
Consider `CCOC(=O)c1cc(C2CCN(c3ccccc3)C2=O)c(C(=O)/C=C(/C)N)[nH]1` (stereo not given), for which the GI50 in assay [1] was 10.2 µM (inactive); in assay [2], 57 µM (inactive); in assay [3], 25.6 µM (inactive); in [4], > 100 µM (inactive); in assay [5], 18.1 µM (inactive); in assay [6], 12.9 µM (inactive). In addition, the GI50 in [7] is 65 µM (inactive); in assay [8] it was > 100 µM (inactive); in assay [9] it was 92.3 µM (inactive); in [10], 46.3 µM (inactive); in [11], > 100 µM (inactive); in assay [12], 37.9 µM (inactive). For the same compound, the GI50 in assay [13] was 30.2 µM (inactive); in [14], 15.9 µM (inactive); in assay [15], 29.1 µM (inactive); in [16], 40.8 µM (inactive); in assay [17] it was 45.8 µM (inactive); in assay [18], 32.8 µM (inactive). Moreover, the figures for the GI50 in [19] and in assay [20] were 15 µM (inactive) and 16.2 µM (inactive), respectively.
As to `CC(C(=O)n1ccnc1)N1c2ccccc2Sc2ccccc21` (stereo not given), the GI50 in [1] is 59.2 µM (inactive); in assay [2] it was 47.2 µM (inactive); in assay [3], > 100 µM (inactive); in assay [4], 84.7 µM (inactive); in [5], 67.5 µM (inactive); in [6], 90.4 µM (inactive). The GI50 was 77.3 µM (inactive) in assay [7]; > 100 µM (inactive) in [8]; 78.7 µM (inactive) in [9]; 65.3 µM (inactive) in assay [10]; 65.3 µM (inactive) in assay [11]; > 100 µM (inactive) in assay [12]. Further, the GI50 in assay [13] is 98.2 µM (inactive); in [14], > 100 µM (inactive); in assay [15] it was > 100 µM (inactive); in assay [16], 35 µM (inactive); in assay [17], > 100 µM (inactive); in assay [18] it was 39.5 µM (inactive). Moreover, the GI50 in [19] was 64.4 µM (inactive); in assay [20], > 100 µM (inactive).
As for `COc1ccc2oc(=O)cc(C)c2c1`, the GI50 in assay [1], in [2], in assay [3], in [4], in assay [5] and in [6] was > 100 µM (inactive) each time. The GI50 in [7], in assay [8], in [9], in assay [10], in assay [11] and in [12] was > 100 µM (inactive) each time. Besides, the GI50 in assay [13] is > 100 µM (inactive); in assay [14], > 100 µM (inactive); in assay [15], > 100 µM (inactive); in assay [16] it was > 100 µM (inactive); in assay [17], > 100 µM (inactive); in assay [18], 0.0733 µM (active). The GI50 in [19] and in [20] was > 100 µM (inactive) each time.
For the compound `CCOC(=O)c1nc2cc(Cl)ccc2[nH]c1=O`, the GI50 in assay [1], in [2], in [3], in [4], in assay [5] and in [6] was > 100 µM (inactive) each time. In addition, the GI50 in assay [7], in assay [8], in assay [9], in assay [10], in [11] and in assay [12] was > 100 µM (inactive) in each case. Also, the GI50 in [13], in assay [14], in assay [15], in assay [16], in assay [17] and in assay [18] was > 100 µM (inactive) throughout. Moreover, the GI50 in assay [19] and in assay [20] was > 100 µM (inactive) throughout.
